Source: publication PMC9295577, “Parasite Viability as a Measure of In Vivo Drug Activity in Preclinical and Early Clinical Antimalarial Drug Assessment” (Antimicrobial Agents and Chemotherapy, 2022)
Values after ≈ are worked out from the molar mass of the structure shown. Values joined by “and” are separate entries in the source; they are usually repeats but may differ in a detail not shown here. Identical values can stand only once. Like-named read-outs stand apart in the source and are kept apart here.

Legend:
P. falciparum 3D7 [1] = test: PK/PD model of parasite killing and clearance, parameters for humans; assay type: in vivo; details: human data from ref 19
From the text: (§1) To model the drug action in both mice and humans, we used a pharmacodynamic (PD) model in which viable parasites are growing at rate g (per hour) and killed at rate κ (per hour). The dead parasites are then removed at a separate rate, δ (per hour). […] The latter observation is consistent with observations of slower parasite clearance after drug treatment in the NSG mouse model compared with human infection ([27]).
(§2) The human data used in this study were obtained from a randomized clinical trial (ACTRN12617001394336) ([24]) and the associated exploratory viability study ([19]). Briefly, 5 volunteers were infected by intravenous injection of blood-stage 3D7 P. falciparum parasites.
(§3) To model the cyclical growth of P. falciparum parasites, we used a previously published age-structured model of parasite growth, which tracks the distribution of parasite stages developing in time ([40]): (3) vT(a,T)+va(a,T)=0 where, v is the density of parasites at time T postinfection and age a. In this equation, subscripts indicate the partial derivative of v with respect to the subscript variable. […] The constant PMF is the parasite multiplication factor. Since parasites older than approximately 24 h of age are sequestered and no longer in circulation, the total number of circulating viable parasites (V) at any time is given by V(T)= ∫0asv(a,T)da where as is the age that parasites sequester. Importantly, as has been reported previously, the Plasmodium falciparum 3D7 strain used in these studies has an approximately 40-h blood-stage cycle ([41], [42]), so the maximum age of parasites is taken to be A=40 h.
(§4) We extended an existing age-structured model of parasite growth ([43]) to include drug killing of parasites. […] The model has two parasite compartments: one for viable parasites and one for nonviable parasites. The model of drug killing of viable parasites and host removal of nonviable parasites after treatment is defined as follows: vt(a,t)+va(a,t)= −κ(a,C(t))×v(a,t) (4) ut (a,t)=κ(a,C(t))×v(a,t)−δ×u(a,t) for a>0 where v(a,t) and u(a,t) are the density of viable and nonviable parasites of age a at time t posttreatment, respectively. […] The parameter δ is the rate of host removal of nonviable parasites. The total concentrations of circulating V(t) viable and nonviable U(t) parasites at time t are defined as follows: V(t)= ∫0aSv(a,t)da U(t)= ∫0aSu(a,t)da where as is the parasite sequestration age. We assume that the parasites are not sequestering in mice, in which case, as=A (the length of the parasite blood-stage life cycle), and that parasites sequester at as=A/2 in humans ([46]).
The maximum killing rate m(a) is a function of the parasite age since very-late-stage parasites are not killed by treatment ([47]). […]

[2] = parameters: method as in earlier work; details: humans, non-compartmental analysis, population mean (CV), ref 4 (supplement; Watts et al. 2020), cited from earlier work
[3] = DHA pharmacokinetics in NSG mice after oral artesunate, one-compartment model; assay type: in vivo; details: mouse, whole blood
Description: A volume of 25 μL of whole-blood samples was collected via the tail vein from individual mice at 0.75, 1.5, 3, 8, 26, 50, and 74 h from the 50-mg/kg 4-daily-dose group and at 0.75, 1.5, 3, and 8 h from the 200-mg/kg single-dose group. […] Samples were vortexed for 20 s before being stored at −80°C.
Briefly, the model is defined as follows: (2) C(t)=D×ka/Vd/F(ka−CL/Vd) ×[exp⁡(−CL/Vd×(t−tlag))− exp⁡(−ka×(t−tlag)) ], where Vd/F (L) is the apparent volume of distribution, tlag (h) is the lag time between administration and absorption, CL/F (L/h) is the apparent drug clearance, ka is the rate of drug absorption, and D is the dose given to each subject. The model was fit with and without a lag for the absorption.
We used a least-square approach when fitting the ex vivo regrowth assay to estimate the concentration of viable parasites. […] When fitting the pharmacodynamic model, we first fit the pretreatment parasite concentration data for each human subject with the parasite growth model (equation 3) and estimated the distribution of parasite stages at the time of treatment and the parasite multiplication factor (PMF) when drug is not present. […]

P. falciparum 3D7 [4] = test: PK/PD model of parasite killing and clearance, parameters for mice; assay type: in vivo
From the text: as §1, §3, §4
(§5) The maximum killing rate m(a) is a function of the parasite age since very-late-stage parasites are not killed by treatment ([47]).
(§6) As in previous studies, the age above which late-stage parasites survive treatment (aschiz) is taken to be the final 4 h of a 48-h life cycle ([48], [49]). The malaria parasite strain used in this study has a 40-h life cycle ([42], [46]), and we take aschiz as the last 4/48th of the life cycle. […]

P. falciparum 3D7 [5] = test: PK/PD model of parasite killing, parameters common to humans and mice; assay type: in vivo, Plasmodium falciparum
From the text: as §1, §3, §4, §5, §6

[6] = mouse, literature, cited from earlier work
[7] = DHA pharmacokinetics in human volunteer infection study after artesunate; assay type: in vivo, humans
From the text: as §2
Briefly, the model is defined as follows: (2) C(t)=D×ka/Vd/F(ka−CL/Vd) ×[exp(−CL/Vd×(t−tlag))− exp(−ka×(t−tlag)) ], where Vd/F (L) is the apparent volume of distribution, tlag (h) is the lag time between administration and absorption, CL/F (L/h) is the apparent drug clearance, ka is the rate of drug absorption, and D is the dose given to each subject. The model was fit with and without a lag for the absorption. The absorption was too fast to be observed in mice, and the one-compartment open model without a lag term fit the murine data best.
A one-compartment model with a first-order absorption and a lag, fit the human data best.
We used a least-square approach when fitting the ex vivo regrowth assay to estimate the concentration of viable parasites. […] When fitting the pharmacodynamic model, we first fit the pretreatment parasite concentration data for each human subject with the parasite growth model (equation 3) and estimated the distribution of parasite stages at the time of treatment and the parasite multiplication factor (PMF) when drug is not present. For the mice, pretreatment parasitemia curves were not detailed enough to allow fitting to estimate parasite life stage distributions and PM: instead, we estimated the PMF for each mouse from the in vivo recrudescence curves after treatment (fitting a tobit regression model using R package censReg) (Fig. 3), and we estimated the life stage distribution using the life stages from flow cytometric analysis (outlined in section C in the supplemental material). […] We fit this model to all data on parasite viability and total circulating parasitemia from mice and humans simultaneously with a variety of parameters constrained to be equivalent between mice and humans, in order to test which parameters, if any, were required to be different between the two hosts in order to best explain the data. We compared these models using the likelihood ratio test (for nested models) and the Akaike information criterion (AIC). A model with fewer parameters was deemed a better fit of the data unless the likelihood ratio test yielded a P value of […] (for nested models) or the difference in AIC of >10 for nonnested models.

[8] = system: P. falciparum Pf3D7^0087/N9; test: Artesunate efficacy in the murine P. falciparum NSG model: parasitemia and parasite viability (ex vivo regrowth assay); parameters: species or system Plasmodium falciparum; details: NSG mice, first 24 h, single oral dose 200 vs 50 mg/kg
Description: Compound efficacy was assessed in the murine P. falciparum NSG model, as described by Jimenez-Diaz et al. ([38]). […] These mice had been engrafted with human erythrocytes 14 days earlier (generously provided by the Blood Bank in Zürich, Switzerland). Prior to compound treatment, mice were intravenously infected with 2 × 10^5 P. falciparum Pf3D7^0087/N9-infected erythrocytes (day 0). On day 3 after infection, mice were randomly allocated to treatments that were administered orally. Parasitemia was measured by microscopy. Chimerism was monitored by flow cytometry using anti-murine erythrocyte TER119 monoclonal antibody (Pharmingen, San Diego, CA) and SYTO-16 and then analyzed by flow cytometry in serial blood samples (2 μL) collected every day until the completion of the experiment. Parasite recrudescence was detected by microscopy.
Prior to each treatment and after 8, 24, 48, 72, 96 and 168 h, 40 μL of blood was collected using a heparinized capillary and transferred into 10 mL of 37°C preheated medium. The suspension was centrifuged (5 min at 290 × g) and the supernatant discarded.
For the ex vivo regrowth assay (ERA), 10-μL pellets of the washed mouse blood sample were processed as described above for the IRA.
To estimate parasite viability, we fitted the data from the regrowth assay with a mathematical model of parasite growth as described in reference [19]. […]

[9] = model with EC50 and γ common to humans and mice
[10] = model with Emax and γ common to humans and mice
[11] = assumes average mouse weight of 25 g
[12] = humans, one compartment model, population estimate (95% CI)

## C[C@H]1[C@@H](O)O[C@@H]2O[C@@]3(C)CC[C@H]4[C@H](C)CC[C@@H]1[C@@]24OO3 [DHA, dihydroartemisinin]
P. falciparum 3D7 [1]; Plasmodium falciparum, 3D7, model with Emax and γ common to humans and mice, read-out: EC50H, drug concentration to reach the half-maximum killing rate in humans
  EC50: 0.0025 ng/mL (≈ 0.00879 nM)
P. falciparum 3D7 [1]; [9]
  EmaxH, maximum killing rate in humans: 1.45 h⁻¹
[2]; ART-R infection (n = 13)
  V/F, apparent volume of distribution: 221.1 (53.6) L
[2]; ART-R infection
  Dose-Normalised AUC: 6.3 (89.9) μg h L^-1 mg^-1
[2]; ART-S infection (n = 9)
  V/F, apparent volume of distribution: 310.3 (119.4) L
[2]; ART-S infection
  Dose-Normalised AUC: 7.5 (33.2) μg h L^-1 mg^-1
[3]; mice, computed from CL and Vd, read-out: t1/2, half-clearance time (converted)
  half-life: 24 min
[3]; read-out: Vd/F, apparent volume of distribution
  Vd/F: 0.55 L
P. falciparum 3D7 [4]; Plasmodium falciparum, 3D7, model with Emax and γ common to humans and mice, read-out: EC50M, drug concentration to reach the half-maximum killing rate in mice
  EC50: 1.32 ng/mL (≈ 4.64 nM)
P. falciparum 3D7 [4]; [9]
  EmaxM, maximum killing rate in mice: 0.74 h⁻¹
P. falciparum 3D7 [5]; Plasmodium falciparum, 3D7, model with EC50 and γ common to humans and mice, different Emax, read-out: EC50, drug concentration to reach the half-maximum killing rate
  EC50: 0.0074 ng/mL (≈ 0.026 nM)
P. falciparum 3D7 [5]; [9]
  γ, Hill coefficient: 0.70
P. falciparum 3D7 [5]; [10]
  γ, Hill coefficient: 0.41
P. falciparum 3D7 [5]; model with Emax and γ common to humans and mice, different EC50s
  Emax, maximum killing rate: 1.34 h⁻¹
[6]; [11]
  CL/F, apparent clearance: 1.53 L/h
  Vd/F, apparent volume of distribution: 0.91 L
[6]
  CL/F, apparent clearance: 1.98 L/h
  Vd/F, apparent volume of distribution: 0.85 L
  t1/2, half-clearance time: 0.41 ([50]) h
[7]; human, blood, 2 mg/kg, humans, computed from CL and Vd, read-out: t1/2, half-clearance time (converted)
  half-life: 27 min
[7]; human, blood, 2 mg/kg, read-out: Vd/F, apparent volume of distribution
  Vd/F: 166 L
[7]; humans (n = 5), artesunate 2 mg/kg, population estimate (95% CI), one-compartment model fitted to data from reference 24
  CL/F, apparent clearance: 254.5 L/h and 254.5 (144.5, 364.5) L/h
[7]; humans, one compartment model, average of volunteers, bootstrap confidence interval
  Dose-Normalised AUC: 5.34 (3.83, 6.52) μg h L^-1 mg^-1
[7]; [12]
  ka, absorption rate: 2.29 h⁻¹
  tlag, lag-time: 0.62 (0.4, 0.83) h

## C[C@H]1[C@H](OC(=O)CCC(=O)O)O[C@@H]2O[C@@]3(C)CC[C@H]4[C@H](C)CC[C@@H]1[C@@]24OO3 [artesunate]
P. falciparum 3D7 [1]; [9]
  δH, dead parasite clearance rate in humans: 0.18 h⁻¹
P. falciparum 3D7 [1]; [10]
  δH, dead parasite clearance rate in humans: 0.18 h⁻¹
[8]
  increase in the decline in total parasitemia on increasing dose from 50 to 200 mg/kg: 2.2 fold
[8]; regrowth assay
  increase in the decline in viability on increasing dose from 50 to 200 mg/kg: 23.9 fold
P. falciparum 3D7 [4]; [9]
  δM, dead parasite clearance rate in mice: 0.097 h⁻¹
P. falciparum 3D7 [4]; [10]
  δM, dead parasite clearance rate in mice: 0.097 h⁻¹
